One block for each compound: values may come before it.
Tests used:
[1] = biological target: T1, Short transient receptor potential channel 6 (Homo sapiens, UniProt Q9Y210); experiment: Inhibition of human TRPC6 expressed in HEK293 cells assessed as reduction in OAG-induced calcium influx preincubated for 2 mins followed by OAG stimulation by fluo-4/AM dye based FLIPR assay; type: cell-based
T1 sequence (Q9Y210 whole entry): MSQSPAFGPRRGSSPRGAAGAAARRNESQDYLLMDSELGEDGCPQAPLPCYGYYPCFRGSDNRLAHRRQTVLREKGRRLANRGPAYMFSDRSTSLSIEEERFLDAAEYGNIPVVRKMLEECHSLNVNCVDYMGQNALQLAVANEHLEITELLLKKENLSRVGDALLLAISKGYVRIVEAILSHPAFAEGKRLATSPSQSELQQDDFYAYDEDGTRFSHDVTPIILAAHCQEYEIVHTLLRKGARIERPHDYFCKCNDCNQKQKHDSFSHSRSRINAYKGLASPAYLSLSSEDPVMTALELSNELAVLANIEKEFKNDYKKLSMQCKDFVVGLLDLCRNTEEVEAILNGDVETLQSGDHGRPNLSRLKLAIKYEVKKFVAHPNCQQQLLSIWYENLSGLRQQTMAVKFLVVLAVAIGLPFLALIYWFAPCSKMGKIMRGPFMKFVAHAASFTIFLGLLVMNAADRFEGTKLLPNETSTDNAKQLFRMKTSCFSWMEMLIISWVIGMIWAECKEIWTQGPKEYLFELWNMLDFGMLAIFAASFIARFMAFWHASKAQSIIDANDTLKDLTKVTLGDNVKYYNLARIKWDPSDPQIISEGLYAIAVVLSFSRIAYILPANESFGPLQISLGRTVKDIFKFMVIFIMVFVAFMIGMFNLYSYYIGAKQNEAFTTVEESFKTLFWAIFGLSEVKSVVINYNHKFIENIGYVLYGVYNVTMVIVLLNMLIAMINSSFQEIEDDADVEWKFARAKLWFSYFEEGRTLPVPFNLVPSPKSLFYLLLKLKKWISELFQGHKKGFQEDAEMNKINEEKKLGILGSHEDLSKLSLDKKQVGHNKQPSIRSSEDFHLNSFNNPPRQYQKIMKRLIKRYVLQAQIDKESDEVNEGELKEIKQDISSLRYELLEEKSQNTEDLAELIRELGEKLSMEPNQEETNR

[2] = biological target: T2, Short transient receptor potential channel 3 (Homo sapiens, UniProt Q13507); experiment: Inhibition of YFP-tagged TRPC3 (unknown origin) expressed in HEK293 cells assessed as reduction carbhocol-induced receptor operated Calcium influx after 5 mins by fura-2-AM dye based assay; type: cell-based
T2 sequence (Q13507 whole entry): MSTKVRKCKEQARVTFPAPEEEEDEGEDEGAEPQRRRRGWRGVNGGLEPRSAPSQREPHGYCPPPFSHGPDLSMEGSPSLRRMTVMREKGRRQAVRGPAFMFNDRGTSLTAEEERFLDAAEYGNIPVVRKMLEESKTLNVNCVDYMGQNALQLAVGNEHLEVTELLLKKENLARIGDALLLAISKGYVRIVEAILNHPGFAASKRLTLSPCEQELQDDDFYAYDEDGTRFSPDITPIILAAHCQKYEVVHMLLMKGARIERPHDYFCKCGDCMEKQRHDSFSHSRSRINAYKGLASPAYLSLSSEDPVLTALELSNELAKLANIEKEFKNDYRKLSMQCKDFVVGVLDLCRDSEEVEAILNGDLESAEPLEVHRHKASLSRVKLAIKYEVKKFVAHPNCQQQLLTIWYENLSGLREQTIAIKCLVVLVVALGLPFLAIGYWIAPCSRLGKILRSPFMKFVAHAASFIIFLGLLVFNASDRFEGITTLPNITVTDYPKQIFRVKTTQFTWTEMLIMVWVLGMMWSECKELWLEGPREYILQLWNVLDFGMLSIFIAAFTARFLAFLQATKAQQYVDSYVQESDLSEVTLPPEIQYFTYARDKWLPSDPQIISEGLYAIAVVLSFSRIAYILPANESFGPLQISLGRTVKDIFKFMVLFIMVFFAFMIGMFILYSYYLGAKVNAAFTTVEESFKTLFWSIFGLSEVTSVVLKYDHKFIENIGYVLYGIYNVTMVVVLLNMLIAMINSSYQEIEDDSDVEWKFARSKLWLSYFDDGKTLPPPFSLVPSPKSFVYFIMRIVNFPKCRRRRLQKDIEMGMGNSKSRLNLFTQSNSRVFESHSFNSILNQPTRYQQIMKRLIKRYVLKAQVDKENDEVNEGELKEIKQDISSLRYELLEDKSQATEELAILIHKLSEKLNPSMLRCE

ORAI1/STIM1 = ORAI1/STIM1 (Rattus norvegicus, UniProt P84903+Q5M848); experiment: Inhibition of ORAI/STIM1 in thapsigargin treated rat RBL2H3 cells assessed as reduction in store-operated calcium entry after 5 mins by fura-2-AM dye based assay; type: cell-based
[3] = Selectivity ratio of ORAI/STIM1 in thapsigargin treated rat RBL2H3 cells to YFP-tagged TRPC3 (unknown origin) expressed in HEK293 cells; type: cell-based
[4] = biological target: T3, Short transient receptor potential channel 4 (Mus musculus, UniProt Q9QUQ5); experiment: Inhibition of mouse TRPC4 beta expressed in HEK293 cells co-expressing mu-opioid receptor assessed as reduction in DAMGO-induced intracellular calcium level in presence of mu-opioid receptor agonist DAMGO by Fluo-4AM dye based fluorescence assay; type: cell-based
T3 sequence (Q9QUQ5 whole entry): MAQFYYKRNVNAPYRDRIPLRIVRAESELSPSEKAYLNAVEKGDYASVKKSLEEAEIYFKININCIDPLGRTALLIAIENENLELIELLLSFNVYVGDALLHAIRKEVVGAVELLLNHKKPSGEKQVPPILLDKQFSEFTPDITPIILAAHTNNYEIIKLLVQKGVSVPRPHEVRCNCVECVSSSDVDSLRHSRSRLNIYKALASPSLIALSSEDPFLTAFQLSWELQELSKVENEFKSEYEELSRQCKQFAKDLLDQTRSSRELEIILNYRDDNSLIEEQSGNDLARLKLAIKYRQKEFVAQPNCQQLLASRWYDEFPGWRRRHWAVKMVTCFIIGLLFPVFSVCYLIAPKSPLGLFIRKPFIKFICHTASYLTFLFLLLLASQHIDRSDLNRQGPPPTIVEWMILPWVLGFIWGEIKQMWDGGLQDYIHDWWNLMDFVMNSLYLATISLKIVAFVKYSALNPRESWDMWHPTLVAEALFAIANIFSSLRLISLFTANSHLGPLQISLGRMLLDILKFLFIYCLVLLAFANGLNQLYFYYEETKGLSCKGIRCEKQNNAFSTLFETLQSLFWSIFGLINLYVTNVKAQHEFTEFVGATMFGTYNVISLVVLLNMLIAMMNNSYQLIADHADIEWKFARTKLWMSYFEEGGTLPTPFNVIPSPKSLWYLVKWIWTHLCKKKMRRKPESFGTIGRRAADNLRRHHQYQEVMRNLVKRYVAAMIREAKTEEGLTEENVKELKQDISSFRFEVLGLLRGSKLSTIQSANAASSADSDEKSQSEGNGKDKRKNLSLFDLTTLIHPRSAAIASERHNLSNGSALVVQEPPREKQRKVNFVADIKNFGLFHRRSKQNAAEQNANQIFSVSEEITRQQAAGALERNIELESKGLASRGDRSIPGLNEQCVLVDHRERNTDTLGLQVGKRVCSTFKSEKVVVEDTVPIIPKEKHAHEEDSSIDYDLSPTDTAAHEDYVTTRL

[5] = biological target: T4, Short transient receptor potential channel 6 (Mus musculus, UniProt Q61143); experiment: Inhibition of HA-tagged mouse TRPC6 expressed in HEK293 cells assessed as reduction in acetylcholine-induced membrane potential by FLIPR membrane potential dye based assay; type: cell-based
T4 sequence (Q61143 whole entry): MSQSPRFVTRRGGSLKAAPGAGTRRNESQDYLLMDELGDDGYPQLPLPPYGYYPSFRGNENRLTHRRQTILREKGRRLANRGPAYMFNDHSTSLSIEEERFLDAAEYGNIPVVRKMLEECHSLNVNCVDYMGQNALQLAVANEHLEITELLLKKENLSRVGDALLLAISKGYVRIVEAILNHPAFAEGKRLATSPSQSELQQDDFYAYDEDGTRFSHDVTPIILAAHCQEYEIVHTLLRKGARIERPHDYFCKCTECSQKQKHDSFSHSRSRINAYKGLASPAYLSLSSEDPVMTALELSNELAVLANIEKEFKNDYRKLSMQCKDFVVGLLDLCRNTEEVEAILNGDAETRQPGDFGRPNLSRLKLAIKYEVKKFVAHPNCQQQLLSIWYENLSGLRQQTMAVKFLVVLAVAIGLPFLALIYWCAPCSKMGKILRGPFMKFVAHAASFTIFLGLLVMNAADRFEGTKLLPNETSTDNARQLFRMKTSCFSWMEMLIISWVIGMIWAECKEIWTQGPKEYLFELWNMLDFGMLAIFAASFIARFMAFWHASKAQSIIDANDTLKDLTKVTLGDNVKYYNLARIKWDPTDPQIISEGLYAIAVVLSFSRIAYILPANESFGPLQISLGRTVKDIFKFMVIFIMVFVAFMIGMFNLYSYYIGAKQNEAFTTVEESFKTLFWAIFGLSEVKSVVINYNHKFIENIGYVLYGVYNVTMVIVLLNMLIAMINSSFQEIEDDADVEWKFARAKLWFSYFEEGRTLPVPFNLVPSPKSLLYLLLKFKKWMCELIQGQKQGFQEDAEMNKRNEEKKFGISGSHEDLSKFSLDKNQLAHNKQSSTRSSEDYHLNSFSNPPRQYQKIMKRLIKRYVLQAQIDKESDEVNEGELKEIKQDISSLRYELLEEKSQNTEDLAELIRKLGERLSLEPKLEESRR

Mus musculus = species: Mus musculus; experiment: Selectivity ratio of mouse TRPC4 beta expressed in HEK293 cells co-expressing mu-opioid receptor to IC50 for mouse TRPC6 expressed in HEK293 cells; type: cell-based
Acetylcholinesterase = Acetylcholinesterase (Homo sapiens, UniProt P22303); experiment: Inhibition of human recombinant acetylcholinesterase expressed in HEK-293 cells using AMTch as substrate after 30 mins by spectrophotometric method
TRPC4/TRPC1 = TRPC4/TRPC1 (Homo sapiens, UniProt P48995+Q9UBN4); experiment: Antagonist activity at TRPC4/TRPC1 in human A498 cells assessed as reduction in englerin A-induced calcium entry preincubated for 30 mins followed by englerin A addition by fluorescence method; type: cell-based
TRPC6 = experiment: Inhibition of TRPC6 expressed in HEK293 cells coexpressing M5 receptor assessed as reduction in TRPC6-mediated calcium influx by fluorescence method
[6] = biological target: T4, Short transient receptor potential channel 6; experiment: Inhibition of mouse TRPC6 expressed in HEK293 cells co-expressing M5 receptor assessed as reduction in carbachol-induced membrane potential by FMP-2 dye based assay; type: cell-based
[7] = biological target: T2, Short transient receptor potential channel 3; experiment: Inhibition of human TRPC3 expressed in HEK293 cells assessed as reduction in carbachol-induced membrane potential by FMP-2 dye based assay; type: cell-based
[8] = Inhibition of human TRPC1/mouse TRPC4 beta expressed in HEK293 cells co-expressing M2 receptor assessed as reduction in […] membrane potential by FMP-2 dye based assay; type: cell-based
[9] = Drug concentration in C57BL/6 mouse serum at 10 mg/kg, ip after 2 hrs by UPLC method; type: ADME, organism-based; details: read-out: Drug uptake
[10] = Drug concentration in C57BL/6 mouse brain at 10 mg/kg, ip after 2 hrs by UPLC method; type: ADME, organism-based; details: read-out: Drug uptake
[11] = Drug concentration in C57BL/6 mouse cerebrospinal fluid at 10 mg/kg, ip after 2 hrs by UPLC method; type: ADME, organism-based; details: read-out: Drug uptake

Sequence of ORAI1/STIM1 (P84903 whole entry): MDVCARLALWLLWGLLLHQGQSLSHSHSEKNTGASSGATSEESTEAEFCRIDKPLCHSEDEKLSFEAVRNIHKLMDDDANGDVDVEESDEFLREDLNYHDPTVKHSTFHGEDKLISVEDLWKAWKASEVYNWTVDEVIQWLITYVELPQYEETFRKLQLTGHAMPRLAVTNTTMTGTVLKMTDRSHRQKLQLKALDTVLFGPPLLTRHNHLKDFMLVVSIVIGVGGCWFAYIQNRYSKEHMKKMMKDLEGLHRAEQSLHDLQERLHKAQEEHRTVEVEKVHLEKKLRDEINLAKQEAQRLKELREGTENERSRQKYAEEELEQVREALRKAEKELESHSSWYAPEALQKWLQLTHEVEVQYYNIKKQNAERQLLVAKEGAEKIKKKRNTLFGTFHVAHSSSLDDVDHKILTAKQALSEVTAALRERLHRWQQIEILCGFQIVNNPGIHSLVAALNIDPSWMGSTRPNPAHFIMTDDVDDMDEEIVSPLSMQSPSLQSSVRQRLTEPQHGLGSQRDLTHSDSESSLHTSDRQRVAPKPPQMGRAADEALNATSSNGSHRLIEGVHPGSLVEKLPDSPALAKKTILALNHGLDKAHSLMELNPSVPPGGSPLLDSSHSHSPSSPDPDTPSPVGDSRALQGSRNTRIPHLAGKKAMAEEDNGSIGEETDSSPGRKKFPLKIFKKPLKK
Sequence of ORAI1/STIM1 (Q5M848 whole entry): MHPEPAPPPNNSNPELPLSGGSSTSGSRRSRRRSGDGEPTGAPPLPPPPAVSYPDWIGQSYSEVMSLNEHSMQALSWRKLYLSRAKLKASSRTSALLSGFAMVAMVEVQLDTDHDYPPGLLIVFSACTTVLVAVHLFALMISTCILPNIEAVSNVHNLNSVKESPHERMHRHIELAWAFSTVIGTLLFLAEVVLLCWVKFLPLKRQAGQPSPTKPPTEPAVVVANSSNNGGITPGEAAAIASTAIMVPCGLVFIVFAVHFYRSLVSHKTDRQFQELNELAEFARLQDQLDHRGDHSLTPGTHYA
Sequence of Acetylcholinesterase (P22303 whole entry): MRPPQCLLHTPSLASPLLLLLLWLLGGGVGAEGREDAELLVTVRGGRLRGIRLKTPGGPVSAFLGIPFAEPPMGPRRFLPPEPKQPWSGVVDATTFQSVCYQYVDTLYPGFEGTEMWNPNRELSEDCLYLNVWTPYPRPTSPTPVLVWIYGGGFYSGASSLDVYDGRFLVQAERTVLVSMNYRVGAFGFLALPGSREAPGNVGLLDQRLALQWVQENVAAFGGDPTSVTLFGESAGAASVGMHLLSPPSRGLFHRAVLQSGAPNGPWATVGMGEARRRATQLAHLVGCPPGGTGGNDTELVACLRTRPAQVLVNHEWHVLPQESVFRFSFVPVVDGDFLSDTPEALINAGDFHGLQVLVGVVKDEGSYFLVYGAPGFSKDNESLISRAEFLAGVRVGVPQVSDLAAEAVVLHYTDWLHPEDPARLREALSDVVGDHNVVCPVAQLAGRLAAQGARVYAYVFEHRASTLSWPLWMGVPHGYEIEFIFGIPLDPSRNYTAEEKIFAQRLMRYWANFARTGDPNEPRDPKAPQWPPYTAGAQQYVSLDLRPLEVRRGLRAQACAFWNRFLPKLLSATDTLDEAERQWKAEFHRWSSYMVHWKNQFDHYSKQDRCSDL
Sequence of TRPC4/TRPC1 (Q9UBN4 whole entry): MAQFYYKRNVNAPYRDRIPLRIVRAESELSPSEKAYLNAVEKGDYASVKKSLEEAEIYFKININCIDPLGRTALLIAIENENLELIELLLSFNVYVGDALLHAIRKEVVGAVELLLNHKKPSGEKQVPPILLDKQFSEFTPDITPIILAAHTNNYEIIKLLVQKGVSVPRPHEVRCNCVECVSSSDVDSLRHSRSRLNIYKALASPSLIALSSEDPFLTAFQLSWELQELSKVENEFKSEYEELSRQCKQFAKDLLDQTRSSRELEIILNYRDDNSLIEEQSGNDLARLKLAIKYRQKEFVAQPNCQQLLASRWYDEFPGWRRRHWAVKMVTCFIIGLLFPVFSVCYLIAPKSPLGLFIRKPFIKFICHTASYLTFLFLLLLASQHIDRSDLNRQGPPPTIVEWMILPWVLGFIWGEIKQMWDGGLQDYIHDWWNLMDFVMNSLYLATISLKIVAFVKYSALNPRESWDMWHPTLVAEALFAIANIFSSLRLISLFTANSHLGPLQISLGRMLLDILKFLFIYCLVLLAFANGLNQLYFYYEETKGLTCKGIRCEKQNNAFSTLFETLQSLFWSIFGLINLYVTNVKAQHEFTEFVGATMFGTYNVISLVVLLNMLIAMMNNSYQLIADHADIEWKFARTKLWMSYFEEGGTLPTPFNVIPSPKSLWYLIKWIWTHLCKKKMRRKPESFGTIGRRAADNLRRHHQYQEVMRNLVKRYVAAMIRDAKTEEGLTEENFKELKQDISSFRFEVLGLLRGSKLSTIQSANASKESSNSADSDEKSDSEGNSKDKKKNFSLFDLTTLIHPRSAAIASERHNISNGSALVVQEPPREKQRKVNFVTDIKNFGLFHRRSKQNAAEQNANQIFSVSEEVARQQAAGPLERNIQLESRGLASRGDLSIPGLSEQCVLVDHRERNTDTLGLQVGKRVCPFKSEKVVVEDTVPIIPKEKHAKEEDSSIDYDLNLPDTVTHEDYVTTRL
Sequence of TRPC4/TRPC1 (P48995 whole entry): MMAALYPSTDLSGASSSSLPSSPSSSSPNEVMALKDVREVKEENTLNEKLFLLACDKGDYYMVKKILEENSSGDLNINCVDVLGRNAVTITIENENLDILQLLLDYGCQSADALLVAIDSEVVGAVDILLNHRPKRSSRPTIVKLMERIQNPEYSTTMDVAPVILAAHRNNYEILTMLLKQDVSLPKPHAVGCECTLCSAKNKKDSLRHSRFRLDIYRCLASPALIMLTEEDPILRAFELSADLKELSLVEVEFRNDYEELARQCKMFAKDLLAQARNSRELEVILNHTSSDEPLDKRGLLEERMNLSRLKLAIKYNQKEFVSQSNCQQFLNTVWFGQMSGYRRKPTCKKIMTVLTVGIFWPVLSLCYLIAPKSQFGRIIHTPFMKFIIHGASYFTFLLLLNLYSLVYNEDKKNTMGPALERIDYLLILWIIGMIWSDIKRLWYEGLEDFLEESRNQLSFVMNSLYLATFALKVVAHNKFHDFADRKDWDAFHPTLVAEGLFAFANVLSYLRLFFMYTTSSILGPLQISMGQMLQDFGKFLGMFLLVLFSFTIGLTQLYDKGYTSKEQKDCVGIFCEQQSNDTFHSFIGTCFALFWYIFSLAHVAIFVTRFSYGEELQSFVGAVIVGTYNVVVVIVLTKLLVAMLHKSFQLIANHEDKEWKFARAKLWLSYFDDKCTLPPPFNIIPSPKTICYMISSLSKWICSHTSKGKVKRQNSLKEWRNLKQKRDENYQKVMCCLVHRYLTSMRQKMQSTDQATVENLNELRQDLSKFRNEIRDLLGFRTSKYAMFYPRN

- IC50 [1]: 250 nM
SMILES: C=C[C@@](C)(CC[C@H]1C(=C)C[C@H](OC(N)=O)[C@H]2C(C)(C)CCC[C@]12C)OC(C)=O

- IC50 [2]: 18.5 µM
- IC50 (ORAI1/STIM1): 490 nM
SMILES: O=C(Nc1ccc(-n2nc(C(F)(F)F)cc2C(F)(F)F)cc1)c1ccncc1F
- Ratio IC50 [3]: 37

SMILES: Cc1cc(N2CCCCC2)nc2ccccc12
- IC50 [4]: 960 nM
- IC50 [5]: 17.9 µM
- Ratio IC50 (Mus musculus): 19
- IC50 (Acetylcholinesterase): 840 nM

- IC50 [1]: 170 nM
SMILES: C=C[C@](C)(O)CC[C@H]1C(=C)C[C@H](OC(N)=O)[C@H]2C(C)(C)CCC[C@]12C

SMILES: CC(C)[C@]12C[C@@H](OCCO)[C@](C)(O1)[C@@H]1CC[C@@H](C)[C@H]1[C@@H]2OC(=O)/C=C/c1ccccc1
- IC50 (TRPC4/TRPC1): 62 nM

- IC50 (TRPC6): 8.4 µM
SMILES: Cc1nn2c(O)cc(C3CCN(C(=O)OC(C)(C)C)CC3)nc2c1-c1ccc(F)cc1

- IC50 [6]: 59.6 µM
- IC50 [7]: 48.6 µM
- IC50 [8]: 8.3 µM
- concentration at 2 h [9]: 2260 ng/mL
- concentration at 2 h [10]: 1100 ng/g
- concentration at 2 h [11]: 335 ng/mL
SMILES: CCCCNc1nc2ccccc2[nH]1

— ChEMBL document CHEMBL4376804, “Review of Transient Receptor Potential Canonical (TRPC5) Channel Modulators and Diseases” (J Med Chem, 2019)
